Laboratory results published in patent US11931424B2, “Combination MCL-1 inhibitors with anti-body drug conjugates” (Gilead Sciences, Inc., priority 2021, dated 2024).

Test system: panel of breast cancer cell lines
Assay: Compound A with targeted agents and chemotherapies, 72-hour in vitro proliferation assays
Format: cell-based
Conditions: 72-hour proliferation
[1] = AU565 cell line, compound A × partner
[2] = BT-20 cell line, compound A × partner
[3] = BT-474 cell line, compound A × partner
[4] = BT-549 cell line, compound A × partner
[5] = CAL-51 cell line, compound A × partner
[6] = CAL-85-1 cell line, compound A × partner
[7] = CAL-120 cell line, compound A × partner
[8] = CAL-148 cell line, compound A × partner
[9] = CAMA-1 cell line, compound A × partner
[10] = DU-4475 cell line, compound A × partner
[11] = EVSA-T cell line, compound A × partner
[12] = HCC1143 cell line, compound A × partner
[13] = MCF7 cells, Compound A × partner agent
[14] = MDA-MB-175-VII cells, Compound A × partner agent
[15] = MDA-MB-231 cells, Compound A × partner agent
[16] = MDA-MB-361 cells, Compound A × partner agent
[17] = MDA-MB-436 cells, Compound A × partner agent
[18] = MDA-MB-453 cells, Compound A × partner agent
[19] = MDA-MB-468 cells, Compound A × partner agent
[20] = SK-BR-3 cells, Compound A × partner agent
[21] = SUM159PT cells, combination of compound A with the named agent
[22] = T47D cells, combination of compound A with the named agent
[23] = ZR-75-1 cells, combination of compound A with the named agent
[24] = ZR-75-30 cells, combination of compound A with the named agent

N.N.O=C([O-])C1(C(=O)[O-])CCC1.[Pt+2] [Carboplatin]
Best CI [1]: 1.10 | Bliss Volume [1]: 6.93 | HSA volume [1]: −0.68 | Loewe Volume [1]: −0.04 | Synergy Score [1]: 3.68 | Best CI [2]: 0.66 | Bliss Volume [2]: 7.81 | HSA volume [2]: 1.55 | Loewe Volume [2]: −0.31 | Synergy Score [2]: 5.46 | Best CI [3]: 1.30 | Bliss Volume [3]: −3.87 | HSA volume [3]: −5.02 | Loewe Volume [3]: −4.61 | Synergy Score [3]: 2.18 | Best CI [4]: 1.30 | Bliss Volume [4]: 6.55 | HSA volume [4]: 4.24 | Loewe Volume [4]: 4.88 | Synergy Score [4]: 5.26 | Best CI [5]: 0.89 | Bliss Volume [5]: 2.81 | HSA volume [5]: 2.17 | Loewe Volume [5]: 2.97 | Synergy Score [5]: 5.53 | Best CI [6]: 1.11 | Bliss Volume [6]: 4.84 | HSA volume [6]: 3.68 | Loewe Volume [6]: 3.42 | Synergy Score [6]: 4.18 | Best CI [7]: 0.58 | Bliss Volume [7]: −0.19 | HSA volume [7]: −1.52 | Loewe Volume [7]: −0.25 | Synergy Score [7]: 0.49 | Best CI [8]: 0.27 | Bliss Volume [8]: 11.40 | HSA volume [8]: 12.06 | Loewe Volume [8]: 11.89 | Synergy Score [8]: 24.09 | Best CI [9]: 0.46 | Bliss Volume [9]: 9.50 | HSA volume [9]: 6.02 | Loewe Volume [9]: 6.21 | Synergy Score [9]: 12.48 | Best CI [10]: 0.76 | Bliss Volume [10]: 10.04 | HSA volume [10]: 7.26 | Loewe Volume [10]: 6.59 | Synergy Score [10]: 8.88 | Best CI [11]: 0.84 | Bliss Volume [11]: 9.55 | HSA volume [11]: −0.13 | Loewe Volume [11]: −0.33 | Synergy Score [11]: 4.72 | Best CI (HCC38, compound A × partner): 0.63 | Best CI Level (HCC38, compound A × partner): 130 | Bliss Volume (HCC38, compound A × partner): 5.43 | HSA volume (HCC38, compound A × partner): 5.68 | Loewe Volume (HCC38, compound A × partner): 3.81 | Synergy Score (HCC38, compound A × partner): 9.07 | Best CI (HCC70, compound A × partner): 0.31 | Best CI Level (HCC70, compound A × partner): 60 | Bliss Volume (HCC70, compound A × partner): 12.67 | HSA volume (HCC70, compound A × partner): 3.84 | Loewe Volume (HCC70, compound A × partner): 3.02 | Synergy Score (HCC70, compound A × partner): 7.72 | Best CI [12]: 0.82 | Bliss Volume [12]: −4.47 | HSA volume [12]: −2.24 | Loewe Volume [12]: −2.60 | Synergy Score [12]: 3.59 | Best CI (HCC1569, compound A × partner): 0.43 | Best CI Level (HCC1569, compound A × partner): 30 | Bliss Volume (HCC1569, compound A × partner): 4.84 | HSA volume (HCC1569, compound A × partner): 2.05 | Loewe Volume (HCC1569, compound A × partner): 2.91 | Synergy Score (HCC1569, compound A × partner): 2.85 | Best CI (HCC1806, compound A × partner): 0.33 | Best CI Level (HCC1806, compound A × partner): 80 | Bliss Volume (HCC1806, compound A × partner): 11.43 | HSA volume (HCC1806, compound A × partner): 4.44 | Loewe Volume (HCC1806, compound A × partner): 9.76 | Synergy Score (HCC1806, compound A × partner): 9.06 | Best CI (HCC1937, compound A × partner): 0.44 | Best CI Level (HCC1937, compound A × partner): 25 | Bliss Volume (HCC1937, compound A × partner): 5.97 | HSA volume (HCC1937, compound A × partner): 3.52 | Loewe Volume (HCC1937, compound A × partner): 4.56 | Synergy Score (HCC1937, compound A × partner): 4.59 | Best CI (HCC1954, compound A × partner): 1.07 | Best CI Level (HCC1954, compound A × partner): 125 | Bliss Volume (HCC1954, compound A × partner): 2.26 | HSA volume (HCC1954, compound A × partner): 2.07 | Loewe Volume (HCC1954, compound A × partner): 0.71 | Synergy Score (HCC1954, compound A × partner): 5.12 | Best CI (HCC2218, compound A × partner): 0.70 | Best CI Level (HCC2218, compound A × partner): 45 | Bliss Volume (HCC2218, compound A × partner): 2.59 | HSA volume (HCC2218, compound A × partner): 0.49 | Loewe Volume (HCC2218, compound A × partner): −1.33 | Synergy Score (HCC2218, compound A × partner): 5.27 | Best CI (HDQ-P1, compound A × partner): 0.92 | Best CI Level (HDQ-P1, compound A × partner): 35 | Bliss Volume (HDQ-P1, compound A × partner): −3.17 | HSA volume (HDQ-P1, compound A × partner): −3.06 | Loewe Volume (HDQ-P1, compound A × partner): −3.13 | Synergy Score (HDQ-P1, compound A × partner): 0.54 | Best CI (HMC-1-8, compound A × partner): 0.72 | Best CI Level (HMC-1-8, compound A × partner): 155 | Bliss Volume (HMC-1-8, compound A × partner): 9.25 | HSA volume (HMC-1-8, compound A × partner): 4.09 | Loewe Volume (HMC-1-8, compound A × partner): 3.94 | Synergy Score (HMC-1-8, compound A × partner): 9.60 | Best CI (JIMT-1, compound A × partner): 0.96 | Best CI Level (JIMT-1, compound A × partner): 25 | Bliss Volume (JIMT-1, compound A × partner): 3.78 | HSA volume (JIMT-1, compound A × partner): −0.17 | Loewe Volume (JIMT-1, compound A × partner): 1.92 | Synergy Score (JIMT-1, compound A × partner): 0.69 | Best CI (KPL-1, compound A × partner): 0.89 | Best CI Level (KPL-1, compound A × partner): 105 | Bliss Volume (KPL-1, compound A × partner): 0.04 | HSA volume (KPL-1, compound A × partner): 1.33 | Loewe Volume (KPL-1, compound A × partner): 0.65 | Synergy Score (KPL-1, compound A × partner): 2.66 | Best CI [13]: 0.40 | Best CI Level [13]: 75 | Bliss Volume [13]: 8.40 | HSA volume [13]: 5.66 | Loewe Volume [13]: 4.40 | Synergy Score [13]: 6.10 | Best CI [14]: 0.60 | Best CI Level [14]: 80 | Bliss Volume [14]: 15.45 | HSA volume [14]: 7.97 | Loewe Volume [14]: 12.14 | Synergy Score [14]: 9.73 | Best CI [15]: 0.91 | Best CI Level [15]: 50 | Bliss Volume [15]: 3.11 | HSA volume [15]: 2.11 | Loewe Volume [15]: 3.30 | Synergy Score [15]: 1.89 | Best CI [16]: 0.82 | Best CI Level [16]: 135 | Bliss Volume [16]: 2.52 | HSA volume [16]: 1.01 | Loewe Volume [16]: 1.40 | Synergy Score [16]: 7.41 | Best CI [17]: 1.72 | Best CI Level [17]: 135 | Bliss Volume [17]: 1.31 | HSA volume [17]: 1.06 | Loewe Volume [17]: 1.16 | Synergy Score [17]: 2.53 | Best CI [18]: 1.12 | Best CI Level [18]: 150 | Bliss Volume [18]: 9.75 | HSA volume [18]: 5.44 | Loewe Volume [18]: 6.37 | Synergy Score [18]: 10.04 | Best CI [19]: 0.56 | Best CI Level [19]: 135 | Bliss Volume [19]: 19.05 | HSA volume [19]: 4.48 | Loewe Volume [19]: 3.36 | Synergy Score [19]: 7.68 | Best CI [20]: 0.35 | Best CI Level [20]: 160 | Bliss Volume [20]: 11.97 | HSA volume [20]: 1.74 | Loewe Volume [20]: 1.40 | Synergy Score [20]: 6.87 | Best CI [21]: 0.52 | Best CI Level [21]: 20 | Bliss Volume [21]: 1.33 | HSA volume [21]: −1.99 | Loewe Volume [21]: −0.01 | Synergy Score [21]: 0.81 | Best CI [22]: 1.01 | Best CI Level [22]: 30 | Bliss Volume [22]: 0.78 | HSA volume [22]: −1.67 | Loewe Volume [22]: 0.98 | Synergy Score [22]: 1.42 | Best CI [23]: 0.88 | Best CI Level [23]: 100 | Bliss Volume [23]: 4.99 | HSA volume [23]: 6.14 | Loewe Volume [23]: 6.57 | Synergy Score [23]: 7.91 | Best CI [24]: 0.30 | Best CI Level [24]: 100 | Bliss Volume [24]: 8.34 | HSA volume [24]: 6.81 | Loewe Volume [24]: 5.78 | Synergy Score [24]: 12.96
